Calls of active or inactive are those of the source. The calls are words filed in the database; no cut-off is given here.
Experiments:
OVCAR-4 = experiment: Growth inhibition of human OVCAR4 cells at 10 uM after 48 hrs by sulforhodamine B assay; assay type: functional; details: OVCAR-4, 48 h, read-out: GI
MOLT-4 = experiment: Growth inhibition of human MOLT4 cells at 10 uM after 48 hrs by sulforhodamine B assay; assay type: functional; details: MOLT-4, 48 h, read-out: GI
RPMI-8226 = experiment: Growth inhibition of human RPMI8226 cells at 10 uM after 48 hrs by sulforhodamine B assay; assay type: functional; details: RPMI-8226, 48 h, read-out: GI
HCT-116 = experiment: Growth inhibition of human HCT116 cells at 10 uM after 48 hrs by sulforhodamine B assay; assay type: functional; details: HCT-116, 48 h, read-out: GI
OVCAR-3 = experiment: Growth inhibition of human OVCAR3 cells at 10 uM after 48 hrs by sulforhodamine B assay; assay type: functional; details: OVCAR-3, 48 h, read-out: GI
KM12 = experiment: Growth inhibition of human KM12 cells at 10 uM after 48 hrs by sulforhodamine B assay; assay type: functional; details: KM12, 48 h, read-out: GI
SW-620 = experiment: Growth inhibition of human SW620 cells at 10 uM after 48 hrs by sulforhodamine B assay; assay type: functional; details: SW-620, 48 h, read-out: GI
A498 = experiment: Growth inhibition of human A498 cells at 10 uM after 48 hrs by sulforhodamine B assay; assay type: functional; details: A498, 48 h, read-out: GI
UO-31 = experiment: Growth inhibition of human UO31 cells at 10 uM after 48 hrs by sulforhodamine B assay; assay type: functional; details: UO-31, 48 h, read-out: GI
ACHN = experiment: Growth inhibition of human ACHN cells at 10 uM after 48 hrs by sulforhodamine B assay; assay type: functional; details: read-out: GI
SF-539 = experiment: Growth inhibition of human SF539 cells at 10 uM after 48 hrs by sulforhodamine B assay; assay type: functional; details: SF-539, 48 h, read-out: GI
NCI-H226 = experiment: Growth inhibition of human NCI-H226 cells at 10 uM after 48 hrs by sulforhodamine B assay; assay type: functional; details: NCI-H226, 48 h, read-out: GI
NCI-H322M = experiment: Growth inhibition of human NCI-H322M cells at 10 uM after 48 hrs by sulforhodamine B assay; assay type: functional; details: read-out: GI
HL-60(TB) = experiment: Growth inhibition of human HL-60(TB) cells at 10 uM after 48 hrs by sulforhodamine B assay; assay type: functional; details: HL-60, 48 h, read-out: GI
786-0 = experiment: Growth inhibition of human 786-0 cells at 10 uM after 48 hrs by sulforhodamine B assay; assay type: functional; details: 786-0, 48 h, read-out: GI
HOP-62 = experiment: Growth inhibition of human HOP62 cells at 10 uM after 48 hrs by sulforhodamine B assay; assay type: functional; details: HOP-62, 48 h, read-out: GI
SR = experiment: Growth inhibition of human SR cells at 10 uM after 48 hrs by sulforhodamine B assay; assay type: functional; details: read-out: GI
NCI-H460 = experiment: Growth inhibition of human NCI-H460 cells at 10 uM after 48 hrs by sulforhodamine B assay; assay type: functional; details: NCI-H460, 48 h, read-out: GI
MDA-MB-435 = experiment: Growth inhibition of human MDA-MB-435 cells at 10 uM after 48 hrs by sulforhodamine B assay; assay type: functional; details: MDA-MB-435, 48 h, read-out: GI
SK-MEL-28 = experiment: Growth inhibition of human SK-MEL-28 cells at 10 uM after 48 hrs by sulforhodamine B assay; assay type: functional, cell-based
IGROV-1 = experiment: Growth inhibition of human IGROV1 cells at 10 uM after 48 hrs by sulforhodamine B assay; assay type: functional; details: IGROV-1, 48 h, read-out: GI
CCRF-CEM = experiment: Growth inhibition of human CCRF-CEM cells at 10 uM after 48 hrs by sulforhodamine B assay; assay type: functional; details: read-out: GI
DU-145 = experiment: Growth inhibition of human DU145 cells at 10 uM after 48 hrs by sulforhodamine B assay; assay type: functional; details: DU-145, 48 h, read-out: GI
MDA-MB-231 = experiment: Growth inhibition of human MDA-MB-231 cells at 10 uM after 48 hrs by sulforhodamine B assay; assay type: functional; details: MDA-MB-231, 48 h, read-out: GI
Carbonic anhydrase 9 = Carbonic anhydrase 9 (Homo sapiens, UniProt Q16790); experiment: Inhibition of human carbonic anhydrase 9 after 15 mins by stopped flow CO2 hydration assay
NCI-H522 = experiment: Growth inhibition of human NCI-H522 cells at 10 uM after 48 hrs by sulforhodamine B assay; assay type: functional; details: NCI-H522, 48 h, read-out: GI
SK-OV-3 = experiment: Growth inhibition of human SKOV3 cells at 10 uM after 48 hrs by sulforhodamine B assay; assay type: functional; details: SK-OV-3, 48 h, read-out: GI
SNB-19 = experiment: Growth inhibition of human SNB19 cells at 10 uM after 48 hrs by sulforhodamine B assay; assay type: functional; details: SNB-19, 48 h, read-out: GI
PC-3 = experiment: Growth inhibition of human PC3 cells at 10 uM after 48 hrs by sulforhodamine B assay; assay type: functional; details: PC-3, 48 h, read-out: GI
SK-MEL-5 = experiment: Growth inhibition of human SK-MEL-5 cells at 10 uM after 48 hrs by sulforhodamine B assay; assay type: functional; details: SK-MEL-5, 48 h, read-out: GI
TK-10 = experiment: Growth inhibition of human TK10 cells at 10 uM after 48 hrs by sulforhodamine B assay; assay type: functional; details: TK-10, 48 h, read-out: GI
HCT-15 = experiment: Growth inhibition of human HCT15 cells at 10 uM after 48 hrs by sulforhodamine B assay; assay type: functional; details: HCT-15, 48 h, read-out: GI
SNB-75 = experiment: Growth inhibition of human SNB75 cells at 10 uM after 48 hrs by sulforhodamine B assay; assay type: functional; details: SNB-75, 48 h, read-out: GI
K562 = experiment: Growth inhibition of human K562 cells at 10 uM after 48 hrs by sulforhodamine B assay; assay type: functional; details: K562, 48 h, read-out: GI
SF-295 = experiment: Growth inhibition of human SF295 cells at 10 uM after 48 hrs by sulforhodamine B assay; assay type: functional; details: SF-295, 48 h, read-out: GI
Malme-3M = experiment: Growth inhibition of human MALME-3M cells at 10 uM after 48 hrs by sulforhodamine B assay; assay type: functional; details: read-out: GI
HT-29 = experiment: Growth inhibition of human HT-29 cells at 10 uM after 48 hrs by sulforhodamine B assay; assay type: functional; details: HT-29, 48 h, read-out: GI
T47D = experiment: Growth inhibition of human T47D cells at 10 uM after 48 hrs by sulforhodamine B assay; assay type: functional; details: read-out: GI
M14 = experiment: Growth inhibition of human M14 cells at 10 uM after 48 hrs by sulforhodamine B assay; assay type: functional; details: M14, 48 h, read-out: GI
SN12C = experiment: Growth inhibition of human SN12C cells at 10 uM after 48 hrs by sulforhodamine B assay; assay type: functional; details: read-out: GI

SMILES: NS(=O)(=O)c1cnccc1N1CCN(c2ccc(Cl)c(Cl)c2)CC1
- inhibition of growth at 10 µM (OVCAR-4): 65%
- inhibition of growth at 10 µM (MOLT-4): 39%
- inhibition of growth at 10 µM (RPMI-8226): 47%
- inhibition of growth at 10 µM (HCT-116): 35%
- inhibition of growth at 10 µM (OVCAR-3): 30%
- inhibition of growth at 10 µM (KM12): 18%
- inhibition of growth at 10 µM (SW-620): 3%
- inhibition of growth at 10 µM (A498): 12%
- inhibition of growth at 10 µM (UO-31): 31%
- inhibition of growth at 10 µM (ACHN): 24%
- inhibition of growth at 10 µM (SF-539): 16%
- inhibition of growth at 10 µM (NCI-H226): 28%
- inhibition of growth at 10 µM (NCI-H322M): 18%
- inhibition of growth at 10 µM (HL-60(TB)): 18%
- inhibition of growth at 10 µM (786-0): 15%
- inhibition of growth at 10 µM (HOP-62): 1%
- inhibition of growth at 10 µM (SR): 35%
- inhibition of growth at 10 µM (NCI-H460): 16%
- inhibition of growth at 10 µM (MDA-MB-435): 32%
- growth inhibition (GI) (SK-MEL-28): inactive
- inhibition of growth at 10 µM (IGROV-1): 31%
- inhibition of growth at 10 µM (CCRF-CEM): 47%
- inhibition of growth at 10 µM (DU-145): 7%
- inhibition of growth at 10 µM (MDA-MB-231): 21%
- Ki (Carbonic anhydrase 9): 341 nM
- inhibition of growth at 10 µM (NCI-H522): 43%
- inhibition of growth at 10 µM (SK-OV-3): 8%
- inhibition of growth at 10 µM (SNB-19): 5%
- inhibition of growth at 10 µM (PC-3): 35%
- inhibition of growth at 10 µM (SK-MEL-5): 89%
- inhibition of growth at 10 µM (TK-10): 9%
- inhibition of growth at 10 µM (HCT-15): 27%
- inhibition of growth at 10 µM (SNB-75): 3%
- inhibition of growth at 10 µM (K562): 65%
- inhibition of growth at 10 µM (SF-295): 41%
- inhibition of growth at 10 µM (Malme-3M): 24%
- inhibition of growth at 10 µM (HT-29): 29%
- inhibition of growth at 10 µM (T47D): 72%
- inhibition of growth at 10 µM (M14): 22%
- inhibition of growth at 10 µM (SN12C): 17%

From ChEMBL document CHEMBL2434896, “Carbonic anhydrase inhibitors. Synthesis of heterocyclic 4-substituted pyridine-3-sulfonamide derivatives and their inhibition of the human cytosolic isozymes I and II and transmembrane tumor-associated isozymes IX and XII” (Eur J Med Chem, 2013)
